Experimental findings from patent publication EP2133323B1, “The production and use of 3,5-dicaffeoyl-4-malonylquinic acid” (I.R.B. Istituto Di Ricerche Biotecnologiche S.r.l., priority 2008, dated 2009) are described below.

Data set [1] can be described thus: Antioxidant activity by the DPPH method. The class given is biochemical. An excerpt: The antioxidant activity of the compound 3,5-dicaffeoyl-4-malonylquinic acid compared to known molecules such as ascorbic acid and rutin, has been determined by means of the DPPH method, according to the instructions reported in J. Buenger et al.; International Journal of Cosmetic Science, 2006, 28: 135-146.
(Loss of DPPH colour is used to gauge radical scavenging.)

Data set [2] has as its system mouse B16F1 melanoma cells. Put plainly: Inhibition of MSH-stimulated melanin production (depigmenting activity). The data set is classed as cell-based. The note with it: 1 mg/mL, 100 nM MSH, 24 hours; for % inhibition vs AK: relative to kojic acid. How it is done:
The bleaching activity of the compound obtained by cell culture of Centella asiatica has been determined by evaluating the inhibition of melanin production, stimulated by the addition of MSH (melanocyte stimulating hormone) in mouse B16F1 melanoma cells. The test has been prepared by seeding mouse B16F1 melanoma cells in DMEM culture medium + 10% FBS in 25 cm^2 flasks. On reaching 80% confluency, the culture medium has been replaced with conditioned medium (containing 100 nM MSH and the test compounds). The cells in the conditioned medium have been incubated for 24 hours at 37°C and 5% CO2. On termination of incubation, the cells have been washed twice with PBS and then detached using a Trypsin-EDTA solution. After washing twice with PBS, the detached cells have been resuspended in the same solution. A small aliquot has been removed from the suspension for the purpose of conducting the MTT cell viability test, while the remainder has been used to extract the cell melanin content. The melanin content has been determined by spectrophotometric measurements at 405 nm, and calculated by means of a calibration curve obtained using a melanin standard. The optical density value obtained has been normalised for the number of viable cells obtained by means of the MTT test. The percentage inhibition of melanin production has been calculated from the percentage ratio between the value obtained from the cells treated with the extracts, and the value obtained from the control cells, treated with MSH alone. The results obtained from testing the compound at a concentration of 1 mg/ml compared to kojic acid at the same concentration, are reported in table 8 below: TABLE 8

Data set [3] concerns DNBS induced colitis model. The experiment in a line: DNBS induced colitis model in rats (anti-inflammatory activity). The class given is in vivo, Sprague-Dawley rats. To be noted: four days after DNBS. An excerpt:
Evaluation of the anti- inflammatory activity of 3, 5-dicaffeoyl-4-malonylquinic acid has been determined on an in vivo induced colitis model. Colitis has been induced in rats using a colon inflammation model, stimulated by DNBS ([…] acid). After 4 days of induction of inflammation, the following parameters have been evaluated: determination of colon damage by means of morphological and histological analysis; determination of myeloperoxidase activity and determination of body weight. The animals used have been subdivided into four experimental groups (10 Sprague-Dawley rats weighing 200-250 g in each group) : • one control group, to which only carrier has been administered (CTR); • one group, to which DNBS plus carrier has been administered (DNBS); • one group, to which DNBS and 3,5-dicaffeoyl-4-malonylquinic acid has been administered: the compound has been administered orally at a concentration of 2 mg/kg for 4 consecutive days following the administration of DNBS; • one group, to which DNBS and 3,5-dicaffeoyl-4-malonylquinic acid has been administered: the compound has been administered orally at a concentration of 0.2 mg/kg for 4 consecutive days following the administration of DNBS.
Four days after the administration of DNBS, the following investigations have been conducted: • evaluation of colon damage by means of morphological and histological analysis (a score is assigned on the basis of the damage observed); • evaluation of myeloperoxidase activity and • determination of body weight.

Data set [4] deals with Malassezia furfur DSMZ4167. The experiment in a line: Multiple dilution antimicrobial assay, CFU count in culture-broth. The class given is cell-based. To be noted: for T7d: sample at 7 days, 30°C. How it is done: (§1) With the aim of identifying any potential antimicrobial activity in the compound 3,5-dicaffeoyl-4-malonylquinic acid, microbiological assays, generally known as multiple dilution assays, have been prepared. The results obtained from said assays have shown the antimicrobial activity of the compound against the following strains: • Staphylococcus aureus ATCC6538 • Malassezia furfur DSMZ4167
(§2) The compound has been tested at concentrations of 5 mg/ml, 2 mg/ml and 1 mg/ml.
(§3) The microbial strains used for testing have been inoculated into culture-broth (in Tryptone soy broth medium, for Malassezia furfur the culture medium has been supplemented with 2 ml/100 ml of olive oil) containing the test compound at the concentrations described above. In parallel with these tests, culture broths containing the microbial strain alone have been prepared (controls). The culture-broths have been incubated at 30°C for a period of 7 days. Samples of the various culture-broths have been taken at 0 and 7 days, with the aim of counting the number of CFU/ml in relation to the various microbial strains, by plating the cultures on solid medium. A certain number of serial dilutions have been prepared for each sample in order to determine the microbial load of each culture-broth. Each dilution has been assayed in triplicate on solid medium. Then number of CFUs reported in the table is the mean of the counts performed on the triplicate assays. Table 4: the effect of 3,5-dicaffeoyl-4-malonylquinic acid on the growth of Staphylococcus aureus ATCC 6538

Data set [5] deals with Staphylococcus aureus ATCC6538. The description is as above. The data set is classed as cell-based. How it is done: as §1, §2, §3
A short description of data set [6]: UV absorption (sun-screen activity), spectrophotometry 250-400 nm. The class given is physicochemical. An excerpt:
This example reports the test to determine the UV absorption of the molecule 3,5-dicaffeoyl-4-malonylquinic acid compared to a commercially available molecule widely used as a sun screen (PARSOL MCX).
The compounds have been examined in an aqueous solution of: • 0.2 M phosphate buffer pH 5.0 • 0.1 M HCl solution at pH 1.0.
The pH 5.0 buffer has been selected as the condition used most frequently in the preparation of sun screens. The pH 1.0 solution has been examined in order to also observe the stability of the compounds at extreme pH values.
The analyses have been conducted using a Shimadzu model UV 1601 spectrophotometer, analysing the spectrum from 250 nm to 400 nm in order to ascertain the absorption of UVA and UVB.
The results report the absorption values at maximum wavelength (λ Max) and at 330 nm, this being the wavelength most frequently used for quantitative measurements for the products in question.
The values are expressed in: • specific extinction, corresponding to the extinction at the given λ for a solution at a concentration of 1.0 µg/mL. • Epsilon = the molar absorption, calculated using the formula Epsilon = A/C*L [formula] where A is the absorption value in mAU, C is the concentration of the solution in moles and L is the path length of the solutions in cm (always 1 cm).

The test system of a further data set is type-2 HSV virus. The experiment in a line: Anti-HSV2 antiviral activity in Vero cell model (XTT read-out). The class given is cell-based, type-2 Herpes simplex virus (HSV) strain 333. To be noted: at a concentration of 200 µg/ml; compared to positive control (infected, no test substance); MOI 0.1; 72 hours. How it is done:
The antiviral activity of 3,5-dicaffeoyl-4-malonylquinic acid towards type-2 HSV virus has been assayed using a Vero cell model. The assay has been conducted using acyclovir as a comparator.
Vero cells have been seeded into 96 well plates at a concentration of 5x10^4 cells/well. After 4 hours incubation at 37°C in 5% CO2, the cells have been infected with strain 333 of the type-2 Herpes simplex virus (HSV) at a multiplicity of infection (MOI) of 0.1 infective viral particles/cell. Various concentrations of 3,5-dicaffeoyl-4-malonylquinic acid (CA1) have been added in triplicate to the cell monolayers. Some wells have been infected in the absence of test compound (POSITIVE CONTROL), others have not been infected and have not been treated with the test compound (NEGATIVE CONTROL), others still have been treated with various concentrations of acyclovir (ACYC), representing the comparator substance. The infected cells have then been incubated in medium plus 2% FBS for 72 hours. On completion of said incubation period, the medium has been removed from each well by aspiration. Following washing in PBS and aspiration, 50 µl of a solution consisting of […] and 1 mg/ml XTT has been added to each well. […] The optical density has been measured using an ELISA plate reader set at a wavelength of 450 nm and 630 nm.

A further data set concerns metalloproteinases (MMP). Put plainly: Metalloproteinase inhibition, 3D model with type-1 collagen gel and BALB 3T3 fibroblasts (hydroxyproline content). To be noted: 48 hours; at higher concentrations collagen increases only through reduced cell number. The data set is classed as cell-based. An excerpt: Metalloproteinase inhibitory activity has been evaluated by preparation of an in vitro assay known as the "3D model" envisaging the use of a type-1 collagen gel and BALB 3T3 fibroblast cells. In this assay model, fibroblasts acquire the property of secreting metalloproteinases (MMP), such as collagenase, gelatinase, elastase etc. through modulation by cytokines or other inflammatory mediators (Lim H., Kim HP, Planta Medica, 2007, 12:1267-1274). Balb 3T3 cells (4*10^6 cells/ms) are inoculated in a culture medium (DMEM + 10% FBS) containing a type 1 collagen 3D gel supplemented with increasing concentrations of the test compound. After incubation for 48 hours at 37°C in 5% CO2, the collagen content is measured by means of an indirect method (hydroxyproline content); in parallel, the effect of treatment on cell viability, or on the growth inhibitory effect, is also assessed. The result is expressed as the %age of hydroxyproline present in the 3D gel, compared to the control, or untreated, culture (NB: the collagen content in the absence of cells is reported as positive control). From the results obtained, it is evident that treatment with 3,5 dicaffeoyl-4-malonylquinic acid is effective up to a concentration of 400 µg/ml. For higher concentrations, the collagen content increases purely as a result of the reduced number of cells.

Setting [7] is: DNBS + 0.2 mg/kg orally for 4 consecutive days.
[8] abbreviates: DNBS + 2 mg/kg orally for 4 consecutive days.
Setting [9] is: pH 1.0, second line, printed beside 326 nm (330 nm line empty).
Setting [10] is: pH 5.0 (0.2 M phosphate buffer), λ Max line.
Setting [11] is: pH 5.0, second line, printed beside 325 nm (330 nm line empty).

Each structure is given as a SMILES string.

By IC50 is commonly meant the point on the concentration scale where inhibition reaches its midpoint. A low value points to greater potency. Turning to `O=C1O[C@H]([C@@H](O)CO)C(O)=C1O` [Ascorbic acid, reference compound], in data set [1], the IC50 amounted to 1000 nM.
Usually inhibition stands for the share of the control response that was lost under treatment. As for `O=c1cc(CO)occ1O` [Kojic acid, reference compound], 1000 µg/mL produced 70% inhibition in data set [2] (Mus musculus, B16-F1, melanin production). For the same compound, the “% inhibition vs AK” value in data set [2] is given as 100%.
One may read the % inhibition as the relative decrease from the control value, in per cent. The low end stands for a weak effect, the high end for a strong effect. In turn, `O=C(O)CC(=O)OC1C(OC(=O)/C=C/c2ccc(O)c(O)c2)CC(O)(C(=O)O)CC1OC(=O)/C=C/c1ccc(O)c(O)c1` (stereo not shown) [3,5-dicaffeoyl-4-malonylquinic acid] returned an IC50 in data set [1] of 3760 nM. Moreover, the values for the Histological score in data set [3] (setting [7]) and in data set [3] (setting [8]) were 1.60 and 1.55, respectively. For the same compound, the Myeloperoxidase activity in data set [3] (setting [7]) is reported as 513.00 U/g fresh weight; in data set [3] (setting [8]), 486.90 U/g fresh weight. Moreover, the T7d is given as under 100 CFU/ml in data set [4] (2 mg/ml); under 100 CFU/ml in data set [4] (5mg/ml); under 100 CFU/ml in data set [5] (5mg/ml, sample at 7 days, 30°C). For the same compound, the antimicrobial activity entry in data set [4] (at a concentration of 2 mg/ml) and in data set [5] (at a concentration of 5 mg/ml) was “exerts antimicrobial activity” in each case. Also, the Epsilon in data set [6] (pH 1.0 (0.1 M HCl), λ Max line) was found to be 28.539; in data set [6] (setting [9]) it was 28.138; in data set [6] (setting [10]) it was 30.602; in data set [6] (setting [11]), 29.972. For the same compound, the “Spec. abs. (1 µg/ml)” value in data set [6] (pH 1.0 (0.1 M HCl), λ Max line) amounted to 47.9 mAU; in data set [6] (setting [9]), 47.2 mAU; in data set [6] (setting [10]), 51.3 mAU; in data set [6] (setting [11]) it was 50.3 mAU. The “% inhibition” value in data set [2] (melanin production) is listed as 33.8%. The “% inhibition vs AK” value in data set [2] came out at 48%. Besides, the antiviral activity result in the data set on type-2 HSV virus was “good antiviral activity”. The “concentration up to which treatment is effective (collagen content, hydroxyproline)” value with metalloproteinases (MMP) was at most 400 µg/mL.
